Key:
[1] = test system: Echinochloa spp.; assay: Paddy field treatment (Test Example 3); format: in vivo, Echinochloa crusgalli; conditions: paddy pot, submerged 4 cm, dropped on water surface 10th day after transplantation, 1 kg active ingredient per hectare, evaluated 21st day
Description: (§1) In the above evaluation criteria, the term “herbicidal effect” means evaluation to the objective weeds, and a higher index of the evaluation criteria means higher herbicidal effect on the objective weeds. On the other hand, a lower index of the evaluation criteria for the crops means higher safety to the crops. A plastic pot of 130 cm^2 was filled with paddy soil, and soil puddling was carried out to adjust the submerged depth to 4 cm. Then, seeds of Echinochloa crusgalli, Monochoria vaginalis, Ammannia multiflora and Scirpus juncoides were sowed, and rice (Oryza […], variety: Koshihikari) of two-leaf period was transplanted by 2 rice plants of 1 stub per pot at a depth of 3 cm. On the 10th day after the transplantation, a wettable powder composition was prepared in accordance with Formulation Example 1, diluted with water in such an amount that the amount of the active ingredient became 1 kg per hectare, and then dropped to diffuse on the water surface. On the 21st day after the dropping, observation and evaluation were carried out according to the aforesaid criteria.

[2] = test system: soybean (Glycine max); assay: Upland field foliage treatment (Test Example 1), crop; format: in vivo; conditions: foliage treatment 14th day after sowing, 1 kg active ingredient per hectare, evaluated 21st day, lower index = higher safety
Source text: (§2) In the above evaluation criteria, the term “herbicidal effect” means evaluation to the objective weeds, and a higher index of the evaluation criteria means higher herbicidal effect on the objective weeds. On the other hand, a lower index of the evaluation criteria for the crops means higher safety to the crops. A plastic pot of 130 cm^2 was filled with upland soil. Then, seeds of weeds, namely, Setaria viridis, Digitaria adscendens, Chenopodium album and Stellaria media, and seeds of crops, namely, soybean (Glycine max) and wheat (Triticum aestivum), were sowed and covered with soil of about 1 cm thick. On the 14th day after the sowing, a wettable powder composition was prepared in accordance with Formulation Example 1, diluted with water in such an amount that the amount of the active ingredient became 1 kg per hectare, and then uniformly applied to the plant leaf surfaces. On the 21st day after the application, observation and evaluation were carried out according to the aforesaid criteria.

[3] = test system: wheat (Triticum aestivum); assay: as above; format: in vivo; conditions: foliage treatment 14th day after sowing, 1 kg active ingredient per hectare, evaluated 21st day, lower index = higher safety
Source text: as §2

[4] = test system: Monochoria vaginalis; assay: Paddy field treatment (Test Example 3); format: in vivo; conditions: paddy pot, submerged 4 cm, dropped on water surface 10th day after transplantation, 1 kg active ingredient per hectare, evaluated 21st day
Description: as §1

[5] = test system: Scirpus juncoides; assay: Paddy field treatment (Test Example 3); format: in vivo; conditions: paddy pot, submerged 4 cm, dropped on water surface 10th day after transplantation, 1 kg active ingredient per hectare, evaluated 21st day
Description: as §1

[6] = test system: Ammannia multiflora; assay: Paddy field treatment (Test Example 3); format: in vivo; conditions: paddy pot, submerged 4 cm, dropped on water surface 10th day after transplantation, 1 kg active ingredient per hectare, evaluated 21st day
Description: as §1

[7] = test system: Setaria viridis; assay: Upland field foliage treatment (Test Example 1); format: in vivo; conditions: foliage treatment 14th day after sowing, wettable powder, 1 kg active ingredient per hectare, evaluated 21st day after application
Source text: as §2

[8] = test system: Digitaria adscendens; assay: Upland field foliage treatment (Test Example 1); format: in vivo; conditions: foliage treatment 14th day after sowing, wettable powder, 1 kg active ingredient per hectare, evaluated 21st day after application
Source text: as §2

[9] = test system: Stellaria media; assay: Upland field foliage treatment (Test Example 1); format: in vivo; conditions: foliage treatment 14th day after sowing, wettable powder, 1 kg active ingredient per hectare, evaluated 21st day after application
Source text: as §2

[10] = test system: Chenopodium album; assay: Upland field foliage treatment (Test Example 1); format: in vivo; conditions: foliage treatment 14th day after sowing, wettable powder, 1 kg active ingredient per hectare, evaluated 21st day after application
Source text: as §2

[11] = test system: Setaria viridis; assay: Upland soil treatment (Test Example 2); format: in vivo; conditions: soil surface treatment next day after sowing, wettable powder, 1 kg active ingredient per hectare, evaluated 21st day after application
Source text: (§3) In the above evaluation criteria, the term “herbicidal effect” means evaluation to the objective weeds, and a higher index of the evaluation criteria means higher herbicidal effect on the objective weeds. On the other hand, a lower index of the evaluation criteria for the crops means higher safety to the crops. A plastic pot of 130 cm^2 was filled with upland soil. Then, seeds of weeds, namely, Setaria viridis, Digitaria adscendens, Chenopodium album and Stellaria media, and seeds of crops, namely, soybean (Glycine max) and wheat (Triticum aestivum), were sowed and covered with soil of about 1 cm thick. On the next day after the sowing, a wettable powder composition was prepared in accordance with Formulation Example 1, diluted with water in such an amount that the amount of the active ingredient became 1 kg per hectare, and then uniformly applied to the soil surface. On the 21st day after the application, observation and evaluation were carried out according to the aforesaid criteria.

[12] = test system: Digitaria adscendens; assay: Upland soil treatment (Test Example 2); format: in vivo; conditions: soil surface treatment next day after sowing, wettable powder, 1 kg active ingredient per hectare, evaluated 21st day after application
Source text: as §3

[13] = test system: Stellaria media; assay: Upland soil treatment (Test Example 2); format: in vivo; conditions: soil surface treatment next day after sowing, wettable powder, 1 kg active ingredient per hectare, evaluated 21st day after application
Source text: as §3

[14] = test system: Chenopodium album; assay: Upland soil treatment (Test Example 2); format: in vivo; conditions: soil surface treatment next day after sowing, wettable powder, 1 kg active ingredient per hectare, evaluated 21st day after application
Source text: as §3

[15] = test system: soybean (Glycine max); assay: Upland soil treatment (Test Example 2), crop; format: in vivo; conditions: soil surface treatment next day after sowing, 1 kg active ingredient per hectare, evaluated 21st day, lower index = higher safety
Source text: as §3

[16] = test system: wheat (Triticum aestivum); assay: Upland soil treatment (Test Example 2), crop; format: in vivo; conditions: soil surface treatment next day after sowing, 1 kg active ingredient per hectare, evaluated 21st day, lower index = higher safety
Source text: as §3

[17] = test system: rice (Oryza sative, variety: Koshihikari); assay: Paddy field treatment (Test Example 3), crop; format: in vivo, Oryza sativa; conditions: transplanted rice two-leaf period, water surface treatment 10th day after transplantation, 1 kg active ingredient per hectare, evaluated 21st day, lower index = higher safety
Description: as §1

Structure (SMILES) | Herbicidal activity Echinochloa spp. [1] | Herbicidal activity Glycine max [2] | Herbicidal activity Triticum aestivum [3] | Herbicidal activity Monochoria vaginalis [4] | Herbicidal activity Scirpus juncoides [5] | Herbicidal activity Ammannia multiflora [6] | Herbicidal activity Setaria viridis [7] | Herbicidal activity Digitaria adscendens [8] | Herbicidal activity Stellaria media [9] | Herbicidal activity Chenopodium album [10] | Herbicidal activity Setaria viridis [11] | Herbicidal activity Digitaria adscendens [12] | Herbicidal activity Stellaria media [13] | Herbicidal activity Chenopodium album [14] | Herbicidal activity Glycine max [15] | Herbicidal activity Triticum aestivum [16] | Herbicidal activity Oryza sativa [17]
COC=C(Cn1nc(-c2ccccc2Cl)c(Cl)c1C)C(=O)OC [Compound 18] | 5 (herbicidal effect of not less than 90% by weight) | 0 (herbicidal effect of not less than 0% by weight and less than 10% by weight) | 0 (herbicidal effect of not less than 0% by weight and less than 10% by weight) | 5 (herbicidal effect of not less than 90% by weight) | 5 (herbicidal effect of not less than 90% by weight) | 5 (herbicidal effect of not less than 90% by weight) | 4 (herbicidal effect of not less than 70% by weight and less than 90% by weight) | 5 (herbicidal effect of not less than 90% by weight) | 5 (herbicidal effect of not less than 90% by weight) | 5 (herbicidal effect of not less than 90% by weight) | 4 (herbicidal effect of not less than 70% by weight and less than 90% by weight) | 5 (herbicidal effect of not less than 90% by weight) | 5 (herbicidal effect of not less than 90% by weight) | 5 (herbicidal effect of not less than 90% by weight) | 0 (herbicidal effect of not less than 0% by weight and less than 10% by weight) | 0 (herbicidal effect of not less than 0% by weight and less than 10% by weight) | 1 (herbicidal effect of not less than 10% by weight and less than 30% by weight)
COC=C(Cn1nc(-c2cccc(Cl)c2Cl)cc1C)C(=O)OC [Compound 6] | 4 (herbicidal effect of not less than 70% by weight and less than 90% by weight) | 0 (herbicidal effect of not less than 0% by weight and less than 10% by weight) | 0 (herbicidal effect of not less than 0% by weight and less than 10% by weight) | 3 (herbicidal effect of not less than 50% by weight and less than 70% by weight) | 3 (herbicidal effect of not less than 50% by weight and less than 70% by weight) | 3 (herbicidal effect of not less than 50% by weight and less than 70% by weight) | 4 (herbicidal effect of not less than 70% by weight and less than 90% by weight) | 4 (herbicidal effect of not less than 70% by weight and less than 90% by weight) | 4 (herbicidal effect of not less than 70% by weight and less than 90% by weight) | 4 (herbicidal effect of not less than 70% by weight and less than 90% by weight) | 4 (herbicidal effect of not less than 70% by weight and less than 90% by weight) | 4 (herbicidal effect of not less than 70% by weight and less than 90% by weight) | 4 (herbicidal effect of not less than 70% by weight and less than 90% by weight) | 4 (herbicidal effect of not less than 70% by weight and less than 90% by weight) | 0 (herbicidal effect of not less than 0% by weight and less than 10% by weight) | 0 (herbicidal effect of not less than 0% by weight and less than 10% by weight) | 0 (herbicidal effect of not less than 0% by weight and less than 10% by weight)
COC=C(Cn1nc(-c2cccc(Cl)c2)cc1SC)C(=O)OC [Compound 38] | 3 (herbicidal effect of not less than 50% by weight and less than 70% by weight) | 1 (herbicidal effect of not less than 10% by weight and less than 30% by weight) | 0 (herbicidal effect of not less than 0% by weight and less than 10% by weight) | 4 (herbicidal effect of not less than 70% by weight and less than 90% by weight) | 3 (herbicidal effect of not less than 50% by weight and less than 70% by weight) | 3 (herbicidal effect of not less than 50% by weight and less than 70% by weight) | 4 (herbicidal effect of not less than 70% by weight and less than 90% by weight) | 4 (herbicidal effect of not less than 70% by weight and less than 90% by weight) | 5 (herbicidal effect of not less than 90% by weight) | 5 (herbicidal effect of not less than 90% by weight) | 4 (herbicidal effect of not less than 70% by weight and less than 90% by weight) | 4 (herbicidal effect of not less than 70% by weight and less than 90% by weight) | 4 (herbicidal effect of not less than 70% by weight and less than 90% by weight) | 4 (herbicidal effect of not less than 70% by weight and less than 90% by weight) | 0 (herbicidal effect of not less than 0% by weight and less than 10% by weight) | 0 (herbicidal effect of not less than 0% by weight and less than 10% by weight) | 0 (herbicidal effect of not less than 0% by weight and less than 10% by weight)
COC=C(Cn1nc(-c2cccc(Cl)c2)c(Cl)c1SC)C(=O)OC [Compound 42] | 3 (herbicidal effect of not less than 50% by weight and less than 70% by weight) | 0 (herbicidal effect of not less than 0% by weight and less than 10% by weight) | 0 (herbicidal effect of not less than 0% by weight and less than 10% by weight) | 3 (herbicidal effect of not less than 50% by weight and less than 70% by weight) | 3 (herbicidal effect of not less than 50% by weight and less than 70% by weight) | 3 (herbicidal effect of not less than 50% by weight and less than 70% by weight) | 4 (herbicidal effect of not less than 70% by weight and less than 90% by weight) | 4 (herbicidal effect of not less than 70% by weight and less than 90% by weight) | 4 (herbicidal effect of not less than 70% by weight and less than 90% by weight) | 4 (herbicidal effect of not less than 70% by weight and less than 90% by weight) | 4 (herbicidal effect of not less than 70% by weight and less than 90% by weight) | 4 (herbicidal effect of not less than 70% by weight and less than 90% by weight) | 4 (herbicidal effect of not less than 70% by weight and less than 90% by weight) | 4 (herbicidal effect of not less than 70% by weight and less than 90% by weight) | 0 (herbicidal effect of not less than 0% by weight and less than 10% by weight) | 0 (herbicidal effect of not less than 0% by weight and less than 10% by weight) | 0 (herbicidal effect of not less than 0% by weight and less than 10% by weight)

Source: patent US6809065B2, “Herbicide containing substituted pyrazole derivative as active ingredient” (SDS Biotech K.K., priority 2001, dated 2004)
